The values that follow come from US12662674B2, “RNA nanoparticle for liver cancer treatment” (OHIO STATE INNOVATION FOUNDATION, priority 2019, dated 2026).

This series concerns HepG2 cells. As to the kind of experiment: HSA synergy modeling of cell viability. The note with it: HSA model, Combenefit; FIG. 17C: 6WJ/HTL/miR122 and 6WJ/HTL/PTX nanoparticles.

The structures appear in SMILES notation.

Text: To study the synergy between miR122 and PTX in cytotoxicity induction, an MTT cell viability assay was first performed. […] Cell viability was used as an indicator to quantify the correlation of synergy between miR122 and PTX using Highest Single Agent (HSA) synergy modeling. The data was processed and quantified using Combenefit software to obtain the HSA synergy score between miR122 and PTX (FIG. 17C). […] The number represented the co-efficiency of synergy.
Cell viability was studied following MTT protocol in cytotoxicity assay. The result was presented by Prism 8.0 (Graph Pad). The viability result was entered into HSA synergy modeling by Combenefit and plotted by Prism 8.0.

As to `CC(=O)O[C@H]1C(=O)[C@@]2(C)[C@H]([C@H](OC(=O)c3ccccc3)[C@]3(O)C[C@H](OC(=O)[C@H](O)[C@@H](NC(=O)c4ccccc4)c4ccccc4)C(C)=C1C3(C)C)[C@]1(OC(C)=O)CO[C@@H]1C[C@@H]2O` [PTX, Paclitaxel], the “concentration of highest synergy in cytotoxic induction” value came to 3.2 µM.
